Data published in patent US11066369B2, “N-(pyridin-2-yl)pyridine-sulfonamide derivatives and their use in the treatment of disease” (Novartis AG, priority 2016, dated 2021).

What was measured:
[1] = target: T1, horseradish peroxidase (HRP) tagged delF508-CFTR (Homo sapiens, UniProt P13569, DEL508-508); experiment: Measurement of delF508-CFTR-HRP surface expression in CFBE41o- cells; type: cell-based; details: delF508-CFTR-HRP surface expression, CFBE41o- cells; for Emax: read-out: DelF508-CFTR-HRP Amax %; for EC50: read-out: DelF508-CFTR-HRP EC50;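 on DelF508-CFTR-HRP Amax %: percent efficacy relative to reference corrector lumacaftor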
T1 construct: expressed in transfected cells
T1 sequence (P13569 with tags, fused parts or gaps DEL508-508): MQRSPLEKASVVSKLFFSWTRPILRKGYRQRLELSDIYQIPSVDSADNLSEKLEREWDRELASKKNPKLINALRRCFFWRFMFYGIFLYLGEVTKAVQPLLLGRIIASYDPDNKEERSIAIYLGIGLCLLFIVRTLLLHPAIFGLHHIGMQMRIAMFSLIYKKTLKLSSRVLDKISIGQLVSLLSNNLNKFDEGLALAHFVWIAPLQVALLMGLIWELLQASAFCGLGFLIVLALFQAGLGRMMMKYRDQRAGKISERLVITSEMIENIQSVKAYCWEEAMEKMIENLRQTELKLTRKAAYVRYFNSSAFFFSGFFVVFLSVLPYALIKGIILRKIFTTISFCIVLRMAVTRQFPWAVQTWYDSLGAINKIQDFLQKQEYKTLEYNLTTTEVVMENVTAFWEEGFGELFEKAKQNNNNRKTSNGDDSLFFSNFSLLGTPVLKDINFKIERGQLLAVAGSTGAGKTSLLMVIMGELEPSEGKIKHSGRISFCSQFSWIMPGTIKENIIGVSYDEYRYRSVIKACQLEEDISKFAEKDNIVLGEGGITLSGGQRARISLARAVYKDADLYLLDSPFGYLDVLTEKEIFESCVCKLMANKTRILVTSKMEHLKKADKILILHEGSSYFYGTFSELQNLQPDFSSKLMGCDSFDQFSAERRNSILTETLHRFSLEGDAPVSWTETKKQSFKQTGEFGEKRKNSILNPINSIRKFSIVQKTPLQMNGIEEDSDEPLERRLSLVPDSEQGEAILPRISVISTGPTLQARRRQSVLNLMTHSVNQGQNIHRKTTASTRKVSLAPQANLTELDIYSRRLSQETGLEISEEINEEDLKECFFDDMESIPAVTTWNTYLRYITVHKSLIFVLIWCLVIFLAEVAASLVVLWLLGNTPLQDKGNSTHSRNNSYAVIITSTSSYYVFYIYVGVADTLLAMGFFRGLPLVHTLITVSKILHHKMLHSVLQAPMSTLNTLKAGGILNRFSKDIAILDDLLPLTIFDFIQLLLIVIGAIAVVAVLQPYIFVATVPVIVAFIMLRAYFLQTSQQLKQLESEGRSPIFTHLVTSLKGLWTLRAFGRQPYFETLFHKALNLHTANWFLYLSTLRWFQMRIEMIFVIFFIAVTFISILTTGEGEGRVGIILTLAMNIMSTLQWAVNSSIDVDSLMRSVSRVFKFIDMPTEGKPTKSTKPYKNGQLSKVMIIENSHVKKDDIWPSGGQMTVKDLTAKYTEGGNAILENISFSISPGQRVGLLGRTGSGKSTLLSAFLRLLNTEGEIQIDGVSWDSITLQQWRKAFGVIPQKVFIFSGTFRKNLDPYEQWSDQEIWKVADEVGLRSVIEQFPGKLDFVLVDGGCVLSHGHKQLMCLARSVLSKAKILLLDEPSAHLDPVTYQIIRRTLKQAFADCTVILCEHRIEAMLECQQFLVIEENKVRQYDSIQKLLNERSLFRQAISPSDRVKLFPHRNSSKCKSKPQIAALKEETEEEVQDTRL
Outline: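 CFBE41o- bronchial epithelial cells stably expressing delF508-CFTR with HRP in the fourth extracellular loop; expression induced 48h with 500 ng/mL doxycycline, then compounds added (top 10 μM, 10-point 3-fold series, ≤0.5% DMSO) for 24h at 37° C. Surface HRP measured by luminescence with cell-impermeant substrate; EC50 from logistic fit of triplicates, plate-normalized to lowest concentration; efficacy also relative to a reference corrector.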

delF508-CFTR = target: T2, delF508-CFTR (Homo sapiens, UniProt P13569, DEL508-508); experiment: Measurement of delF508-CFTR functional activity in primary human bronchial epithelial cells (HBECs) using Multi-Transepithelial Clamp Circuit (MTECC-24) assay; type: cell-based; details: primary CF HBECs; for MTECC24 CFHBEC- Amax %: test compound added 24h before assay plus potentiator, relative to reference combination (2 μM corrector + 0.5 μM potentiator); for EC50: test compound added 24h before assay, in the presence of potentiator, mean of at least two replicates, read-out: MTECC24 CFHBEC- EC50
T2 construct: functional activity of the CFTR channel (Chloride ion transport) in patient derived primary human bronchial epithelial cells; host or cells: patient-derived primary human bronchial epithelial cells (delF508-CFTR)
T2 sequence (P13569 with tags, fused parts or gaps DEL508-508): as above
Outline: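 Patient-derived primary delF508-CFTR HBECs, differentiated at air-liquid interface ~2 weeks, treated basolaterally with compound for 24 h, then apical and basolateral compound in HEPES pH 7.4 assay medium. Equivalent short-circuit current (Ieq) recorded on MTECC-24 with sequential amiloride, forskolin, potentiator and INH-172; normalized to 0.1% DMSO, EC50 from curve fit.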

| SMILES | Emax [1] [%] | EC50 [1] [nM] | MTECC24 CFHBEC- Amax % (delF508-CFTR) [%] | EC50 (delF508-CFTR) [nM] |
| --- | --- | --- | --- | --- |
| Cc1cccc(C)c1-c1nc(NS(=O)(=O)c2cccc(N[C@H]3C[C@H](O)C3)n2)ccc1Cl [Example 287, N-[5-chloro-6-(2,6-dimethylphenyl)pyridin-2-yl]-6-{[(1r,3r)-3-hydroxycyclobutyl]amino}pyridine-2-sulfonamide] | 384 | 1410 | 74.8 | 7.1 |
| Cc1cccc(C)c1-c1nc(NS(=O)(=O)c2cccc(O[C@@H]3CO[C@H](CO)C3)n2)ccc1Cl [Example 288, N-[5-chloro-6-(2,6-dimethylphenyl)pyridin-2-yl]-6-{[(3S,5S)-5-(hydroxymethyl)oxolan-3-yl]oxy}pyridine-2-sulfonamide] | 495 | 1710 | 69.5 | 34.1 |
| Cc1ccc(F)cc1-c1nc(NS(=O)(=O)c2cccc(O[C@@H]3COC[C@@H]3O)n2)ccc1Cl [Example 289, N-(5-chloro-6-(5-fluoro-2-methylphenyl)pyridin-2-yl)-6-(((3R,4S)-4-hydroxytetrahydrofuran-3-yl)oxy)pyridine-2-sulfonamide] | 450 | 2360 | 50.5 | 12.1 |
| Cc1ccc(C#N)cc1-c1nc(NS(=O)(=O)c2cccc(N3CC(C)(O)C3)n2)ccc1C(F)(F)F [Example 299, N-(6-(5-cyano-2-methylphenyl)-5-(trifluoromethyl)pyridin-2-yl)-6-(3-hydroxy-3-methylazetidin-1-yl)pyridine-2-sulfonamide] | 554 | 2440 | 61.7 | 9.4 |
| Cc1ccc(F)cc1-c1nc(NS(=O)(=O)c2cccc(N3CCC(C(=O)O)C3)n2)ccc1C(F)(F)F (stereo not drawn) [Example 300, 1-(6-(N-(6-(5-fluoro-2-methylphenyl)-5-(trifluoromethyl)pyridin-2-yl)sulfamoyl)pyridin-2-yl) pyrrolidine-3-carboxylic Acid] | 626 | 3270 | 43.5 | 12.8 |
| Cc1ccccc1-c1nc(NS(=O)(=O)c2cccc(N3CCNC4(CC4)C3)n2)ccc1C(F)(F)F [Example 302, 6-(4,7-diazaspiro[2.5]octan-7-yl)-N-(6-(o-tolyl)-5-(trifluoromethyl)pyridin-2-yl)pyridine-2-sulfonamide] | 530 | 2320 | 74.4 | 18.3 |
| Cc1ccccc1-c1nc(NS(=O)(=O)c2cccc(N3CC4(C3)OCCC4N)n2)ccc1C(F)(F)F (stereo not drawn) [Example 303, 6-(8-amino-5-oxa-2-azaspiro[3.4]octan-2-yl)-N-(6-(o-tolyl)-5-(trifluoromethyl)pyridin-2-yl)pyridine-2-sulfonamide] | 491 | 3170 | 65.5 | 71.7 |
| Cc1ccccc1-c1nc(NS(=O)(=O)c2cccc(N3CCC4(CCC[C@H]4N)CC3)n2)ccc1C(F)(F)F [Example 304, (R)-6-(1-amino-8-azaspiro[4.5]decan-8-yl)-N-(6-(o-tolyl)-5-(trifluoromethyl)pyridin-2-yl)pyridine-2-sulfonamide] | 421 | 3920 | 63.4 | 8.5 |
| Cc1ccc(C#N)cc1-c1nc(NS(=O)(=O)c2cccc(N3CC(C)(O)C3)n2)ccc1Cl [Example 305, N-(5-chloro-6-(5-cyano-2-methylphenyl)pyridin-2-yl)-6-(3-hydroxy-3-methylazetidin-1-yl)pyridine-2-sulfonamide] | 312 | 2630 | 81.3 | 44.3 |
| Cc1ccccc1-c1nc(NS(=O)(=O)c2cccc(N3CCC4(CC[C@@H]4N)CC3)n2)ccc1C(F)(F)F [Example 306, (S)-6-(1-amino-7-azaspiro[3.5]nonan-7-yl)-N-(6-(o-tolyl)-5-(trifluoromethyl)pyridin-2-yl)pyridine-2-sulfonamide] | 418 | 3050 | 88.1 | 31.5 |
| Cc1ccccc1-c1nc(NS(=O)(=O)c2cccc(N3CCC4(CCC(CO)[C@H]4N)CC3)n2)ccc1C(F)(F)F (stereo partly drawn) [Example 307, 6-((1R)-1-amino-2-(hydroxymethyl)-8-azaspiro[4.5]decan-8-yl)-N-(6-(o-tolyl)-5-(trifluoromethyl)pyridin-2-yl)pyridine-2-sulfonamide] | 259 | 3760 | 61.5 | 45.8 |
| Cc1c(C#N)cccc1-c1nc(NS(=O)(=O)c2cccc(N3CC(C)(O)C3)n2)ccc1C(F)(F)F [Example 308, N-(6-(3-cyano-2-methylphenyl)-5-(trifluoromethyl)pyridin-2-yl)-6-(3-hydroxy-3-methylazetidin-1-yl)pyridine-2-sulfonamide] | 233 | 3750 | 60.7 | 207 |
| Cc1c(C#N)cccc1-c1nc(NS(=O)(=O)c2cccc(N3CC(C)(O)C3)n2)ccc1Cl [Example 309, N-(5-chloro-6-(3-cyano-2-methylphenyl)pyridin-2-yl)-6-(3-hydroxy-3-methylazetidin-1-yl)pyridine-2-sulfonamide] | 194 | 3790 | 75.6 | 210 |
| Cc1ccc(C#N)cc1-c1nc(NS(=O)(=O)c2cccc(N3CCNCC3)n2)ccc1C(F)(F)F [Example 311, N-(6-(5-cyano-2-methylphenyl)-5-(trifluoromethyl)pyridin-2-yl)-6-(piperazin-1-yl)pyridine-2-sulfonamide] | 179 | 3270 | 61.7 | 220 |
| Cc1ccc(C#N)cc1-c1nc(NS(=O)(=O)c2cccc(N3CCNCC3)n2)ccc1Cl [Example 312, N-(5-chloro-6-(5-cyano-2-methylphenyl)pyridin-2-yl)-6-(piperazin-1-yl)pyridine-2-sulfonamide] | 167 | 3970 | 49.8 | 458 |
| Cc1ccccc1-c1nc(NS(=O)(=O)c2cccc(N3CC[C@H](O)[C@H]3C)n2)ccc1C(F)(F)F [Example 314, 6-((2R,3S)-3-hydroxy-2-methylpyrrolidin-1-yl)-N-(6-(o-tolyl)-5-(trifluoromethyl)pyridin-2-yl)pyridine-2-sulfonamide] |  | 1590 | 96.4 | 10 |
| Cc1ccc(F)cc1-c1nc(NS(=O)(=O)c2cccc(N3CCC(O)C3C(=O)O)n2)ccc1C(F)(F)F (stereo not drawn) [Example 315, 1-(6-(N-(6-(5-fluoro-2-methylphenyl)-5-(trifluoromethyl)pyridin-2-yl)sulfamoyl)pyridin-2-yl)-3-hydroxypyrrolidine-2-carboxylic Acid] | 269 | 3290 | 60.9 | 52 |
| Cc1ccc(F)cc1-c1nc(NS(=O)(=O)c2ccnc(N3CCOC[C@H]3C)c2)ccc1Cl [Example 318, (R)—N-(5-chloro-6-(5-fluoro-2-methylphenyl)pyridin-2-yl)-2-(3-methylmorpholino)pyridine-4-sulfonamide] | 318 | 3170 | 48.7 | 77.6 |
| Cc1c(F)cccc1-c1nc(NS(=O)(=O)c2ccnc(N3CCOC[C@H]3C)c2)ccc1Cl [Example 319, (R)—N-(5-chloro-6-(3-fluoro-2-methylphenyl)pyridin-2-yl)-2-(3-methylmorpholino)pyridine-4-sulfonamide] | 195 | 3480 | 67.1 | 25 |
| Cc1ccc(F)cc1-c1nc(NS(=O)(=O)c2ccnc(N3CC(C)(O)C3)c2)ccc1C(F)(F)F [Example 320, N-(6-(5-fluoro-2-methylphenyl)-5-(trifluoromethyl)pyridin-2-yl)-2-(3-hydroxy-3-methylazetidin-1-yl)pyridine-4-sulfonamide] | 545 | 2220 | 74.2 | 126 |
| Cc1ccc(F)cc1-c1nc(NS(=O)(=O)c2ccnc(N3CCOC[C@H]3C)c2)ccc1C(F)(F)F [Example 321, (R)—N-(6-(5-fluoro-2-methylphenyl)-5-(trifluoromethyl)pyridin-2-yl)-2-(3-methylmorpholino)pyridine-4-sulfonamide] | 413 | 1720 | 49.1 | 18.3 |
| Cc1ccc(F)cc1-c1nc(NS(=O)(=O)c2ccnc(N3CC(O)C3)c2)ccc1Cl [Example 322, N-(5-chloro-6-(5-fluoro-2-methylphenyl)pyridin-2-yl)-2-(3-hydroxyazetidin-1-yl)pyridine-4-sulfonamide] | 310 | 2610 | 52.6 | 222 |
